Measurements as given in patent publication US20100003228A1, “T-CELL VACCINE” (priority 2006, published 2010).

What was measured:
Format in all cases: cell-based, human
[1] = system: myelin reactive T cells in PBMCs; test: Epitope Analysis Assay (EAA): PBMC stimulation with myelin peptide mixes, tritiated thymidine incorporation, SI of at least 3 positive; settings: all 54 subjects tested
Experimental: The SI may be calculated by comparing [^3H] thymidine incorporation of the sample in the presence of a peptide comprising a portion of an MRTC polypeptide target to that in the presence of a media only control. Briefly, separate aliquots of the sample are plated and incubated in the presence of either a peptide comprising a portion of the polypeptide or a media only control in order to stimulate reactive T cells. The cultures are pulsed with [^3H] thymidine during the last 6-18 hours of incubation. The SI is calculated as the quotient of the mean counts per minute (cpm) of the antigen aliquots/mean cpm of the control aliquots. The SI of autoreactive T cells may be increased by at least a factor of 1.3, 1.4, 1.5, 1.6, 1.7, 1.8, 1.9, 2.0, 2.1, 2.2, 2.3, 2.4, 2.5, 2.6, 2.7. 2.8, 2.9, 3.0, 3.1, 3.2, 3.3, 3.4, 3.5, 3.6, 3.7, 3.8, 3.9, or 4.0 compared to a control.
The peptides in Example 2 were tested in an in vitro PBMC stimulation assay to identify myelin reactive T cells in a patient's blood. Peripheral blood mononuclear cells (PBMCs) were separated from whole blood, washed, counted and plated at 250,000 cells per well in a total of four 96-well plates. Myelin peptide mixes of two overlapping 16-mer peptides were added to triplicate wells of PBMCs with triplicate media only control wells included on each plate and then incubated. After two days of incubation, 20 U/ml of interleukin-2 (IL-2) was added. On the fifth day, the plates were labeled with a radioisotope (tritiated thymidine) and harvested 6 hours later. In this assay, the cells that incorporate tritiated thymidine are representative of T cells being activated and induced to proliferate by the T cell receptor-peptide-MHC complexes. T cells incorporating comparatively more tritiated thymidine than control and experimental cells are more highly activated T cells and are proliferating more rapidly.
Stimulation Indices (SI) were determined for each peptide mix by dividing the mean radiolabel counts per minute (CPM) of the peptide stimulated wells by the mean CPM of the media only control wells averaged across all four plates. An SI of at least 3 was considered positive. FIG. 1 is an example of EAA from one MS patient. Seven of the peptide mixtures were slightly reactive, with the MOGm15 stimulated wells being very reactive. FIGS. 2-4 show the frequency of reactivity to the peptide mixes in 48 patients.

myelin-reactive T cells = test: Growth of myelin reactive T cell lines with low stimulation indices
From the text: Using the algorithms described above, statistically significant SIs as low as 1.3 have been observed and therefore should be able grow in response to antigen. To verify this ability, 5 cell lines across two patients are shown with an SI<2.0. The results are shown in Table 12 and FIG. 24, which indicate growth of these cell lines with only peptide antigen stimulation and common T cell growth factors.
PBMC for subject 1042 were run in the EAA, and […] were positive, including PLPm18 with an SI of 1.8, PLPm26 with an SI of 2.5 and PLPm28 with an SI of 2.5. […] PBMC for subject 1014 were run in the EAA, and 4 mixes were positive, including MBPm14 with an SI of 1.7, PLPm17 with an SI of 1.7, PLPm28 with an SI of 2.2 and MOGm6 with an SI of 1.9. […]
PBMCs were isolated via density gradient centrifugation from peripheral blood obtained through venipuncture into ACD-1 anticoagulant. PBMCs were plated at 2.5E+06 cells/well in 24 well plates. Antigen in the form of 16mer peptides identified in the EAA were added at a final concentration of 20 ug/ml. Interluekin-2 (IL-2) was added at a final concentration of 100 U/ml starting at 48 hours and IL-2 was added at the same concentration with each feeding or splitting of wells. Peptide restimulation in the presence of antigen presenting cells (APCs-autologous PBMCs irradiated at 3500 rad) was done at days 7, 14 and 21. Interleukin-15 (IL-15) was added at a final concentration of 5 ng/ml-20 ng/ml (lot specific) starting at day 14 and continued through the remainder of the culture period. Cells lines were all harvested by day 35 and had achieved expansions of 3.0-8.2 fold.

[2] = system: myelin reactive T cells in PBMCs; test: EAA with positivity by Variance Evaluation Method or CPM Variance Method (clinical trials); settings: clinical trial population, RR-MS or CIS subjects
From the text: The predetermined value may also be calculated using a Variance Evaluation Method as follows: • 1. EAAs may be run on a given patient population (minimum of 120 assays from 120 unique subjects) • 2. A “negative population” may be created by averaging all SI values<2.5 • 3. The Standard Deviation (SD) may be calculated for each peptide • 4. The following for each peptide may be then be calculated: • a. Average+1SD • b. Average+2SD • c. Average+3SD • 5. The following SIs may be considered above the predetermined value: • a. SI greater than or equal to the average+3SD • b. Any SI greater than or equal to 2.5
The predetermined value may also be evaluated using a Counts per Minute (CPM) Variance Method. This algorithm may set a comprehensive cutoff for all peptides within a given assay. It may be calculated as follows: • 1. EAAs may be run and the CPM for all control (media only, no antigen) wells averaged. • 2. The SD for CPM of the control wells may then be calculated. • 3. The following may then be calculated for the control wells: • a. Average+1SD • b. Average+2SD • c. Average+3SD • 4. Any peptide with an average CPM greater than or equal to the average+3SD of the control wells may be considered above the predetermined value.
Any peptide, either analyzed in an individual well or as averaged over wells run in triplicate, with an SI≧2.5, an SI≧average+3SD by the Variance Evaluation Method, or an SI≧average+3SD by the CPM variance method may be considered above the predetermined value, which may indicate a T cell(s) positive for reactivity to a peptide.
The peptides of Example 3 have been tested in 429 EAAs in clinical trials as follows. […] Pre-Vaccine EAAs have 158 positive out of 387 assays (40.8%), with Relapse Remitting MS patients (RRMS) showing 150 positive of 368 assays (40.8%), and Clinically Isolated Syndrome (CIS) patients showing 8 positive of 19 assays (42.1%).
Over the course of 6 months a study was conducted with 120 subjects meeting the criteria for the clinical trial.
The above mentioned population of subjects was evaluated by EAA using the Variance Evaluation Method and CPM Variance Method as described above, and deemed eligible for vaccine production. Of the 120 attempts to manufacture vaccine, there were 2 shipping failures (blood was not received within our stated criteria), 1 culture was lost to contamination and 5 samples arrived with low cell volume/yield. Of the remaining 112 subjects, vaccine was successfully generated in 89 subjects, with 22 still in production (98.9% of eligible samples, 92.5% of all samples completed). From this, a positive EAA was deemed predictive of the ability to manufacture a vaccine to therapeutic dose by methods disclosed herein.

Substance | subjects tested that were reactive [1] | Fold Expansion (myelin-reactive T cells; subject 1042, Day 0) | Viable Cell Count, Count/well (myelin-reactive T cells; subject 1042, Day 0) | Viable Cell Count, Total Cells (myelin-reactive T cells; subject 1042, Day 0) | Fold Expansion (myelin-reactive T cells; subject 1042, Day 14) | Viable Cell Count, Count/well (myelin-reactive T cells; subject 1042, Day 14) | Viable Cell Count, Total Cells (myelin-reactive T cells; subject 1042, Day 14) | Fold Expansion (myelin-reactive T cells; subject 1042, Day 19) | Viable Cell Count, Count/well (myelin-reactive T cells; subject 1042, Day 19) | Viable Cell Count, Total Cells (myelin-reactive T cells; subject 1042, Day 19) | Fold Expansion (myelin-reactive T cells; subject 1042, Day 26) | Viable Cell Count, Count/well (myelin-reactive T cells; subject 1042, Day 26) | Viable Cell Count, Total Cells (myelin-reactive T cells; subject 1042, Day 26) | Fold Expansion (myelin-reactive T cells; subject 1042, Day 33) | Viable Cell Count, Count/well (myelin-reactive T cells; subject 1042, Day 33) | Viable Cell Count, Total Cells (myelin-reactive T cells; subject 1042, Day 33) | Fold Expansion (myelin-reactive T cells; subject 1042, Day 35) | Viable Cell Count, Count/well (myelin-reactive T cells; subject 1042, Day 35) | Viable Cell Count, Total Cells (myelin-reactive T cells; subject 1042, Day 35) | # of Subjects (frequency of identification) [2] | also measured
MBP 151-170: immunodominant peptide of MBP used to prepare vaccines in Example 1 (TASTMDHARHGFLPRHRDTG; UniProt P02686 151-170, looked up, fragment) | Forty-one percent | – | – | – | – | – | – | – | – | – | – | – | – | – | – | – | – | – | – | – | –
PLP 30-49: PLP immunodominant peptide used to prepare vaccines in Example 1 (ALFCGCGHEALTGTEKLIET; UniProt P60201 30-49, looked up, fragment) | 31% | – | – | – | – | – | – | – | – | – | – | – | – | – | – | – | – | – | – | – | –
PLP 180-199: PLP immunodominant peptide used to prepare vaccines in Example 1 (TWTTCQSIAFPSKTSASIGS; UniProt P60201 180-199, looked up, fragment) | 31% | – | – | – | – | – | – | – | – | – | – | – | – | – | – | – | – | – | – | – | –
PLPm18: mix of PLP 35 and PLP 36 (chain 1 RVCHCLGKWLGHPDKF; chain 2 CLGKWLGHPDKFVGIT) | – | 1.0 | 2.50E+06 | 3.00E+07 | 0.4 | 9.60E+05 | 1.15E+07 | 0.8 | 1.97E+06 | 2.36E+07 | 1.2 | 1.50E+06 | 3.60E+07 | 3.0 | 3.76E+06 | 9.02E+07 | 3.0 | 3.74E+06 | 8.98E+07 | 10 | % of Subjects (frequency of identification) [2]: 8.4%
PLPm26: mix of PLP 51 and PLP 52 (chain 1 CADARMYGVLPWNAFP; chain 2 RMYGVLPWNAFPGKVC) | – | 1.0 | 2.50E+06 | 3.00E+07 | 0.6 | 1.50E+06 | 1.80E+07 | 1.0 | 2.40E+06 | 2.88E+07 | 3.0 | 3.73E+06 | 8.95E+07 | 4.2 | 2.61E+06 | 1.25E+08 | 5.7 | 3.54E+06 | 1.70E+08 | 28 | % of Subjects (frequency of identification) [2]: 23.5%
PLPm28: mix of PLP 55 and PLP 56 (chain 1 GKVCGSNLLSICKTAE; chain 2 GSNLLSICKTAEFQMT) | – | 1.0 | 2.50E+06 | 3.00E+07 | 0.6 | 1.56E+06 | 1.87E+07 | 1.5 | 3.82E+06 | 4.58E+07 | 3.5 | 4.34E+06 | 1.04E+08 | 7.4 | 4.61E+06 | 2.21E+08 | 8.2 | 5.15E+06 | 2.47E+08 | 6 | Fold Expansion (myelin-reactive T cells; subject 1014, Day 0): 1.0; Viable Cell Count, Count/well (myelin-reactive T cells; subject 1014, Day 0): 2.50E+06; Viable Cell Count, Total Cells (myelin-reactive T cells; subject 1014, Day 0): 2.25E+07; Fold Expansion (myelin-reactive T cells; subject 1014, Day 17): 0.9; Viable Cell Count, Count/well (myelin-reactive T cells; subject 1014, Day 17): 3.09E+06; Viable Cell Count, Total Cells (myelin-reactive T cells; subject 1014, Day 17): 2.78E+07; Fold Expansion (myelin-reactive T cells; subject 1014, Day 19): 1.4; Viable Cell Count, Count/well (myelin-reactive T cells; subject 1014, Day 19): 2.41E+06; Viable Cell Count, Total Cells (myelin-reactive T cells; subject 1014, Day 19): 4.34E+07; Fold Expansion (myelin-reactive T cells; subject 1014, Day 28): 2.8; Viable Cell Count, Count/well (myelin-reactive T cells; subject 1014, Day 28): 2.81E+06; Viable Cell Count, Total Cells (myelin-reactive T cells; subject 1014, Day 28): 8.43E+07; Fold Expansion (myelin-reactive T cells; subject 1014, Day 33): 5.2; Viable Cell Count, Count/well (myelin-reactive T cells; subject 1014, Day 33): 5.17E+06; Viable Cell Count, Total Cells (myelin-reactive T cells; subject 1014, Day 33): 1.55E+08; Fold Expansion (myelin-reactive T cells; subject 1014, Day 35): 5.3; Viable Cell Count, Count/well (myelin-reactive T cells; subject 1014, Day 35): 5.33E+06; Viable Cell Count, Total Cells (myelin-reactive T cells; subject 1014, Day 35): 1.60E+08; % of Subjects (frequency of identification) [2]: 5.0%
